Assay results reported in PubChem BioAssay (NCI).
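96-well plates; 48 h exposure; 5 concentrations. Endpoints by linear interpolation between flanking doses. Not reached: highest tested concentration assigned. GI50 is the concentration that inhibits growth by half. TGI is the concentration that stops growth completely.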

What was measured:
Test in all cases: NCI-60 cell line screen, 48 h
[1] = system: 786-0 renal
[2] = system: A498 renal
[3] = system: A549 NSCLC
[4] = system: ACHN renal
[5] = system: BT-549 breast
[6] = system: CAKI-1 renal
[7] = system: COLO 205 colon
[8] = system: DU-145 prostate
[9] = system: EKVX NSCLC
[10] = system: HCC-2998 colon
[11] = system: HCT-116 colon
[12] = system: HCT-15 colon
[13] = system: HL-60(TB) leukemia
[14] = system: HOP-62 NSCLC
[15] = system: HOP-92 NSCLC
[16] = system: HS 578T breast
[17] = system: HT29 colon
[18] = system: IGROV1 ovarian
[19] = system: K-562 leukemia
[20] = system: KM12 colon
[21] = system: LOX IMVI melanoma
[22] = system: M14 melanoma
[23] = system: MALME-3M melanoma
[24] = system: MCF7 breast
[25] = system: MDA-MB-231 breast
[26] = system: MDA-MB-435
[27] = system: MOLT-4 leukemia
[28] = system: NCI-H226 lung
[29] = system: NCI-H23 lung
[30] = system: NCI-H460 lung
[31] = system: NCI-H522 lung
[32] = system: NCI/ADR-RES ovarian
[33] = system: OVCAR-3 ovarian
[34] = system: OVCAR-4 ovarian
[35] = system: OVCAR-5 ovarian
[36] = system: OVCAR-8 ovarian
[37] = system: PC-3 prostate
[38] = system: RPMI-8226 leukemia
[39] = system: RXF 393 renal
[40] = system: SF-268 CNS
[41] = system: SF-295 CNS
[42] = system: SF-539 CNS
[43] = system: SK-MEL-2 melanoma
[44] = system: SK-MEL-28 melanoma
[45] = system: SK-MEL-5 melanoma
[46] = system: SK-OV-3 ovarian
[47] = system: SN12C renal
[48] = system: SNB-19 CNS
[49] = system: SNB-75 CNS
[50] = system: SW-620 colon
[51] = system: T-47D breast
[52] = system: TK-10 renal
[53] = system: U251 CNS
[54] = system: UACC-257 melanoma
[55] = system: UACC-62 melanoma
[56] = system: UO-31 renal

**Q.** How did the GI50 [1] turn out when `CCCCCCCCCCCCOC1C(CNCC2OC3OC(C)(C)OC3C2NC(=O)Nc2ccc(C(=O)OCC)cc2)OC2OC(C)(C)OC21` (configuration not stated) was run?
**A.** 3.29 µM

**Q.** And the TGI [1]?
**A.** 11.5 µM

**Q.** What about the GI50 [2] of the same compound?
**A.** 12.8 µM

**Q.** What about the TGI [2] of the same compound?
**A.** 25.5 µM

**Q.** What about the GI50 [3] of the same compound?
**A.** 2.23 µM

**Q.** And the TGI [3]?
**A.** 4.76 µM

**Q.** What about the GI50 [4] of the same compound?
**A.** 3.43 µM

**Q.** And the TGI [4]?
**A.** 10.9 µM

**Q.** And the GI50 [5]?
**A.** 5.44 µM

**Q.** What about the TGI [5] of the same compound?
**A.** 19.8 µM

**Q.** What about the GI50 [6] of the same compound?
**A.** 6.74 µM

**Q.** And the TGI [6]?
**A.** 19.8 µM

**Q.** What about the GI50 [7] of the same compound?
**A.** 1.99 µM

**Q.** What about the TGI [7] of the same compound?
**A.** 3.76 µM

**Q.** And the GI50 [8]?
**A.** 1.89 µM

**Q.** And the TGI [8]?
**A.** 3.73 µM

**Q.** And the GI50 [9]?
**A.** 6.08 µM

**Q.** And the TGI [9]?
**A.** 18.9 µM

**Q.** What about the GI50 [10] of the same compound?
**A.** 1.8 µM

**Q.** And the TGI [10]?
**A.** 3.23 µM

**Q.** What about the GI50 [11] of the same compound?
**A.** 1.72 µM

**Q.** And the TGI [11]?
**A.** 3.14 µM

**Q.** What about the GI50 [12] of the same compound?
**A.** 2.46 µM

**Q.** What about the TGI [12] of the same compound?
**A.** 6.14 µM

**Q.** What about the GI50 [13] of the same compound?
**A.** 2.65 µM

**Q.** What about the TGI [13] of the same compound?
**A.** 5.9 µM

**Q.** What about the GI50 [14] of the same compound?
**A.** 3.55 µM

**Q.** What about the TGI [14] of the same compound?
**A.** 13.5 µM

**Q.** And the GI50 [15]?
**A.** 1.84 µM

**Q.** And the TGI [15]?
**A.** 3.92 µM

**Q.** And the GI50 [16]?
**A.** 1.67 µM

**Q.** What about the TGI [16] of the same compound?
**A.** 3.76 µM

**Q.** What about the GI50 [17] of the same compound?
**A.** 1.71 µM

**Q.** And the TGI [17]?
**A.** 3.56 µM

**Q.** And the GI50 [18]?
**A.** 2.7 µM

**Q.** What about the TGI [18] of the same compound?
**A.** 7.37 µM

**Q.** And the GI50 [19]?
**A.** 2.95 µM

**Q.** What about the TGI [19] of the same compound?
**A.** > 100 µM

**Q.** What about the GI50 [20] of the same compound?
**A.** 1.96 µM

**Q.** What about the TGI [20] of the same compound?
**A.** 3.69 µM

**Q.** What about the GI50 [21] of the same compound?
**A.** 1.99 µM

**Q.** What about the TGI [21] of the same compound?
**A.** 3.92 µM

**Q.** What about the GI50 [22] of the same compound?
**A.** 1.77 µM

**Q.** And the TGI [22]?
**A.** 3.38 µM

**Q.** What about the GI50 [23] of the same compound?
**A.** 8.99 µM

**Q.** What about the TGI [23] of the same compound?
**A.** 29.1 µM

**Q.** What about the GI50 [24] of the same compound?
**A.** 1.35 µM

**Q.** And the TGI [24]?
**A.** 2.92 µM

**Q.** What about the GI50 [25] of the same compound?
**A.** 1.77 µM

**Q.** What about the TGI [25] of the same compound?
**A.** 3.33 µM

**Q.** And the GI50 [26]?
**A.** 1.9 µM

**Q.** And the TGI [26]?
**A.** 3.8 µM

**Q.** And the GI50 [27]?
**A.** 3.39 µM

**Q.** What about the TGI [27] of the same compound?
**A.** 8.43 µM

**Q.** And the GI50 [28]?
**A.** 6.23 µM

**Q.** And the TGI [28]?
**A.** 22.7 µM

**Q.** And the GI50 [29]?
**A.** 8.34 µM

**Q.** And the TGI [29]?
**A.** 21.5 µM

**Q.** What about the GI50 [30] of the same compound?
**A.** 2 µM

**Q.** What about the TGI [30] of the same compound?
**A.** 3.87 µM

**Q.** And the GI50 [31]?
**A.** 2.04 µM

**Q.** What about the TGI [31] of the same compound?
**A.** 3.78 µM

**Q.** What about the GI50 [32] of the same compound?
**A.** 2.19 µM

**Q.** What about the TGI [32] of the same compound?
**A.** 4.35 µM

**Q.** What about the GI50 [33] of the same compound?
**A.** 3.41 µM

**Q.** What about the TGI [33] of the same compound?
**A.** 11.5 µM

**Q.** What about the GI50 [34] of the same compound?
**A.** 1.87 µM

**Q.** What about the TGI [34] of the same compound?
**A.** 4.25 µM

**Q.** And the GI50 [35]?
**A.** 4.18 µM

**Q.** What about the TGI [35] of the same compound?
**A.** 17 µM

**Q.** And the GI50 [36]?
**A.** 2.16 µM

**Q.** What about the TGI [36] of the same compound?
**A.** 4.3 µM

**Q.** And the GI50 [37]?
**A.** 2.21 µM

**Q.** What about the TGI [37] of the same compound?
**A.** 4.39 µM

**Q.** What about the GI50 [38] of the same compound?
**A.** 2.13 µM

**Q.** What about the TGI [38] of the same compound?
**A.** 4.53 µM

**Q.** What about the GI50 [39] of the same compound?
**A.** 2.73 µM

**Q.** And the TGI [39]?
**A.** 4.8 µM

**Q.** And the GI50 [40]?
**A.** 1.63 µM

**Q.** And the TGI [40]?
**A.** 3.24 µM

**Q.** What about the GI50 [41] of the same compound?
**A.** 6.31 µM

**Q.** What about the TGI [41] of the same compound?
**A.** 20 µM

**Q.** What about the GI50 [42] of the same compound?
**A.** 1.79 µM

**Q.** And the TGI [42]?
**A.** 3.52 µM

**Q.** What about the GI50 [43] of the same compound?
**A.** 13.4 µM

**Q.** What about the TGI [43] of the same compound?
**A.** 29.7 µM

**Q.** And the GI50 [44]?
**A.** 1.97 µM

**Q.** And the TGI [44]?
**A.** 4.3 µM

**Q.** And the GI50 [45]?
**A.** 2.05 µM

**Q.** And the TGI [45]?
**A.** 4.13 µM

**Q.** And the GI50 [46]?
**A.** 10.4 µM

**Q.** And the TGI [46]?
**A.** 23.3 µM

**Q.** What about the GI50 [47] of the same compound?
**A.** 1.96 µM

**Q.** And the TGI [47]?
**A.** 3.74 µM

**Q.** And the GI50 [48]?
**A.** 13.7 µM

**Q.** What about the TGI [48] of the same compound?
**A.** 27.7 µM

**Q.** What about the GI50 [49] of the same compound?
**A.** 5.52 µM

**Q.** And the TGI [49]?
**A.** 21.1 µM

**Q.** And the GI50 [50]?
**A.** 1.75 µM

**Q.** And the TGI [50]?
**A.** 3.29 µM

**Q.** What about the GI50 [51] of the same compound?
**A.** 2.68 µM

**Q.** And the TGI [51]?
**A.** 7.1 µM

**Q.** And the GI50 [52]?
**A.** 4.13 µM

**Q.** And the TGI [52]?
**A.** 15.2 µM

**Q.** And the GI50 [53]?
**A.** 1.94 µM

**Q.** What about the TGI [53] of the same compound?
**A.** 3.71 µM

**Q.** And the GI50 [54]?
**A.** 5.05 µM

**Q.** And the TGI [54]?
**A.** 16.2 µM

**Q.** What about the GI50 [55] of the same compound?
**A.** 3.39 µM

**Q.** What about the TGI [55] of the same compound?
**A.** 12.2 µM

**Q.** What about the GI50 [56] of the same compound?
**A.** 3.96 µM

**Q.** And the TGI [56]?
**A.** 13.8 µM
